Earlier results, collected in paper PMC4310643 (ACS Nano, 2015).

Test system: ABIR

Arg-Gly-Asp-DPhe-Lys (head to tail) [cRGDfK, cyclic peptide, arginine-glycine-aspartic acid-(D)phenylalanine-lysine]
binding affinity to ABIR: high binding affinity to ABIR
